In BindingDB's records for doi:10.1016/j.ejmech.2021.113381 (University of Texas Medical Branch, 2021):
Where a name gives a salt, the structure may show the parent alone.

Assay: Inhibition of ASM (unknown origin)-mediated KRAS mislocalization from plasma membrane

Question: Which IC50 does the source give for `CC(NCCC(c1ccccc1)c1ccccc1)c1ccccc1` (stereo unspecified) [FENDILINE HYDROCHLORIDE] here?
Answer: Its IC50 is 5.6 µM.
